Results taken from PMC5805504 (Oncotarget, 2017).

Key:
TGFβRII = TGFβRII (Homo sapiens, UniProt P37173); test: Confirmatory TGFβRII binding assay
[1] = tested on: BMP ligand (SMAD1/5/8-responsive promoter); test: Cell based luciferase reporter assay (SMAD1/5/8), BMP4-stimulated HEK293_SMAD1/5/8 cells; settings: Homo sapiens; BMP4 20 nM stimulated HEK293_SMAD1/5/8
pSMAD in NIH3T3 cells = test: pSMAD inhibition in NIH3T3 cells; format: cell-based; settings: Mus musculus, read-out: IC50, inhibition of pSMAD, data not shown
U87MG glioblastoma cells = test: U87MG in vitro cell migration assay; format: cell-based, human
Protocol: U87MG cells were cultured in minimum essential medium (MEM) supplemented with 10% fetal bovine serum (FBS). Eight micron migration plates (24 well) were coated with denatured collagen I (BD, cat# 354326) at 10 μg/ml. Following overnight incubation at 4°C, the lower chambers were washed three times with phosphate buffered saline (PBS) followed by blocking with 1% bovine serum albumin (BSA) for 1 hour. The chambers were washed 3 times in PBS then 200 μl of migration buffer [MEM containing 5% blocking solution (Sigma, cat# 2393), […]] was added. […] After 1 hour of culture, 10 ng/ml of recombinant human (rh) TGFβ1 was added to upper chambers and cells were allowed to migrate in a 37°C incubator for 48 hours. The non-migrated cells were aspirated and wiped off the upper chamber with a cotton swab. The inserts were washed 3 times with PBS and the chambers transferred to new […]. The chambers were fixed with 500 μl of 10% neutral buffered formalin (NBF) for 20 minutes followed by three washes with PBS. The cells were stained with Hoechst at 1:10,000 for 20 minutes in the dark then washed three times with PBS. The membranes were cut with a scalpel, placed on a slide and the pictures were taken using Eclipse 90i Microscope. Image Pro-Analyzer 7.0 was used for analysis of migrated cells.

[2] = tested on: MX1 human xenograft breast cancer model; test: MX1 in vivo xenograft cancer model; design: species or system athymic nude mice
Protocol: Female athymic nude mice from Charles River weighing 22 to 26 grams were implanted subcutaneously in the flank with 1×10^7 cells in a 1:1 (v/v) mixture in matrigel. […] Tumor volumes and body weight were determined by electronic caliper every 2 to 3 days. Repeat measures analysis was utilized with log transformed data and the auto-regression (AR) method to determine the overall p-value for galunisertib growth curves relative to the vehicle control in both tumor models. […]

[3] = patients with myelodysplastic syndrome; cited from earlier work
in vivo = settings: female, athymic nu/nu, mouse, plasma, po, 75 mg/kg
Protocol: For in vivo measurement of tumor cell pSMAD activity, tumors were harvested from mice at the indicated time points post-treatment, snap frozen in liquid nitrogen, then pulverized in lysis buffer [EDTA 5 mM, EGTA 5 mM, sodium pyrophosphate 30 mM, sodium chloride 6.7 mM, sodium fluoride 50 mM, and 1% triton in water, pH 7.4 with protease and phosphatase inhibitors (Sigma, p8340, p5726, p0044) and sodium orthovanadate 2.5 mM]. Protein concentration was estimated with DC protein assay kit (BioRad).
Percent inhibition of normalized pSMAD2 levels was calculated by first determining the ratio of tSMAD to pSMAD values for the vehicle group. […] Percent inhibition for compound treated groups was determined relative to the minimum pSMAD inhibition of the vehicle group using the formula: [(100- (normalized pSMAD in the experimental treatment group/normalized pSMAD in the vehicle treated group)]. IC50 of pSMAD inhibition was calculated for the data using non-linear regression to fit the standard four parameter logistic model using GraphPad Prism 6.
Female athymic nu/nu mice or immune competent syngenic BALB/c mice (Charles River or Taconic Farms, respectively, 22 to 28 grams) were maintained in microisolator cages, received food and water ad libitum, and were quarantined for 1 week before experimental manipulation. Sub-confluent Calu6 human non-small cell lung cancer (NSCLC) cells were injected subcutaneously in the flank of nude mice (1x 10^7cells/per animal) in 0.2 mL of culture medium mixed with Matrigel (BD Biosciences, 1:1 v/v). EMT6-LM2 murine triple negative breast cancer tumor cells (5 × 10^5 cells/per animal in the absence of matrigel) were implanted on the flank of BALB/c mice. EMT6-LM2 cells were generated from parental EMT6 cells which were passaged twice from spontaneous lung metastases (LM) following subcutaneous growth. When the tumor volume reached ~250 mm^3, mice were randomized and separated into treatment groups.
Tumors and plasma were collected 2 hours post dosage for analysis of pSMAD and compound levels.
Tumors and plasma were collected at the indicated time points (0.5, 1, 1.5, 2, 4, 8, and 16 hours) for analysis of pSMAD and compound levels.
Percent target inhibition was calculated as described above then was modeled as a function of either dose or plasma concentration.

[4] = tested on: CEREP diversity panel, 65 targets; test: CEREP diversity panel; settings: at 10 μM, duplicate; data not shown
U87MG xenograft tumors = test: U87MG glioblastoma xenograft tumor model; settings: galunisertib 25 mg/kg BID oral; lomustine (CCNU) 30 mg/kg single intraperitoneal dose; alone or combined
Protocol: Five million U87MG glioblastoma cells, obtained from ATCC (Manassas, VA), were injected subcutaneously in the flank of 8- to 9-week old, female, athymic nude mice (Harlan, Indianapolis, IN) in a 1:1 mixture of 1x PBS and matrigel (Becton Dickinson, Bedford, MA). Mice were monitored daily for palpable tumors. […] The tumor volumes were recorded at regular intervals following treatment.

Sequence of TGFβRII (P37173 23-567): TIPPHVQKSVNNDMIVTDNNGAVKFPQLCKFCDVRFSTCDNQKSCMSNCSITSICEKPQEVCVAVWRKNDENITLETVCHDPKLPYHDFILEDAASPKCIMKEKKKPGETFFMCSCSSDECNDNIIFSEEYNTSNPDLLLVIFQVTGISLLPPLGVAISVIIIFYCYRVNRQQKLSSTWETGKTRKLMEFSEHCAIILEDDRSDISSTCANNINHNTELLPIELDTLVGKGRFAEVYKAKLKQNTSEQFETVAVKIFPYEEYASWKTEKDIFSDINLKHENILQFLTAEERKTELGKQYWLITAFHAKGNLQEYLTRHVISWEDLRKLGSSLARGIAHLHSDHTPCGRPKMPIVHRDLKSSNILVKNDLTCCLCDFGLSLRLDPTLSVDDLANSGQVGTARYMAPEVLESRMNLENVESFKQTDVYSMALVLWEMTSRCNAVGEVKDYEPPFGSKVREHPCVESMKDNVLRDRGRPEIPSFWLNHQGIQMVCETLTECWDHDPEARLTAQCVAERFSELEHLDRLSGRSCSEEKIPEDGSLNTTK

Cc1cccc(-c2nn3c(c2-c2ccnc4ccc(C(N)=O)cc24)CCC3)n1.O [galunisertib, 4-[2-(6-methylpyridin-2-yl)-5,6-dihydro-4H-pyrrolo[1,2-b]pyrazol-3-yl]quinoline-6-carboxamide monohydrate]
IC50 (TGFβRII): 430 nM
IC50 [1]: > 10000 nM
IC50 (pSMAD in NIH3T3 cells): 64 nM
TGFβ1-enhanced cell migration (U87MG glioblastoma cells; 1, 3, 10 μM, rhTGFβ1 10 ng/ml, 48 hours): blocked cell migration in a dose dependent manner
baseline migration in the absence of exogenous TGFβ1 (U87MG glioblastoma cells; galunisertib alone): reduced baseline migration
tumor growth delay ([2]; 75 mg/kg twice daily oral gavage, 1500 mm^3 crossing time, p = 0.014): 10.3 ± 4.3 days
body weight ([2]; 75 mg/kg twice daily, data not shown): No body weight loss
clinical activity, phase II [3]: clinical activity
Tmax (in vivo): 30 min
inhibition against all 65 targets [4]: < 25%
anti-tumor effect (tumor volume) (U87MG xenograft tumors): modest anti-tumor effect
